# Measured values published in patent US20240174696A1, “2,8-DIAZASPIRO[4.5]DECANE COMPOUNDS” (Genentech, Inc., priority 2021, published 2024).
# Experiments:
# [1] = target: T1, Human LATS2 catalytic domain (Homo sapiens (Human), UniProt Q9NRM7); assay: Standard LATS2 HTRF Assay; assay type: biochemical; conditions: asterisk: Standard LATS2 HTRF Assay, 50 μM ATP, 0.2 nM LATS2
# Procedure: Human LATS2 catalytic domain which contains the amino acids G553-V1088 (accession NP_055387) was purified in-house. The LATS2 catalytic domain was co-purified with Mob1b (accession NP_775739). The LATS2 biochemical HTRF assay was performed using the HTRF KinEASE-STK S1 Kit (Cisbio, Cat #62ST1PEC), following the protocol from the manufacturer. Compounds were dispensed by the Echo Liquid Handler (Labcyte) into a white 384-well plate (PerkinElmer, Cat #6008289). 3 uL of 2×LATS2 enzyme solution was added to the compounds, following by a 10 minute incubation at room temperature. Then, 2×ATP and STK S1 peptide solution was added to initiate the one hour enzyme reaction at room temperature. The final condition of the reaction was 0.2 nM LATS2, 50 μM ATP, 0.5 μM STK S1 peptide in 50 mM HEPES pH7.2, 10 mM MgCl2, 0.1% BGG, 0.005% Brij-35, 1 mM DTT. The reaction was quenched by adding 6 uL of the detection mixture which contained Streptavidin XL665 and STK Antibody-Cryptate (Cisbio), incubate for 1 hour at room temperature. The HTRF (665 nm/620 nm) signal was read on the Envision plater reader (PerkinElmer). The IC50 values were determined by fitting the % inhibition with a nonlinear four-parameter logistical equation. The Ki values were calculated using the Cheng-Prusoff equation for a competitive inhibitor, IC50═Ki (1+S/Km)+M [E] with ATP Km for LATS2=105 μM.
# [2] = test system: TAZ nuclear translocation in SW1990 cells; assay: TAZ Nuclear Translocation Assay; assay type: cell-based; conditions: Homo sapiens, 4 hours
# Method in brief: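 SW1990 cells in RPMI1640/10% FBS treated with compounds for 4 h at 37 °C, then fixed and immunostained for TAZ with Hoechst nuclear counterstain and imaged by high-content imaging. Read-out is the nuclear/cytoplasmic-ring fluorescence ratio, normalized to DMSO (0%) and an inhibitor control (100%); EC50 from four-parameter fit.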
# [3] = target: T1, Human LATS2 catalytic domain; assay: LATS2 High ATP HTRF Assay; assay type: biochemical; conditions: no asterisk: LATS2 High ATP HTRF Assay, 5000 μM ATP, 0.05 nM LATS2
# Method in brief: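 Phosphorylation of 0.5 μM STK S1 peptide at high ATP (5000 μM), 2 h at room temperature, by 0.05 nM LATS2 kinase domain/Mob1b complex after 10 min compound pre-incubation. Ki derived from HTRF-based IC50 (4-parameter logistic) by Cheng-Prusoff, ATP Km 105 μM.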
# T1 sequence (Q9NRM7 553-1088): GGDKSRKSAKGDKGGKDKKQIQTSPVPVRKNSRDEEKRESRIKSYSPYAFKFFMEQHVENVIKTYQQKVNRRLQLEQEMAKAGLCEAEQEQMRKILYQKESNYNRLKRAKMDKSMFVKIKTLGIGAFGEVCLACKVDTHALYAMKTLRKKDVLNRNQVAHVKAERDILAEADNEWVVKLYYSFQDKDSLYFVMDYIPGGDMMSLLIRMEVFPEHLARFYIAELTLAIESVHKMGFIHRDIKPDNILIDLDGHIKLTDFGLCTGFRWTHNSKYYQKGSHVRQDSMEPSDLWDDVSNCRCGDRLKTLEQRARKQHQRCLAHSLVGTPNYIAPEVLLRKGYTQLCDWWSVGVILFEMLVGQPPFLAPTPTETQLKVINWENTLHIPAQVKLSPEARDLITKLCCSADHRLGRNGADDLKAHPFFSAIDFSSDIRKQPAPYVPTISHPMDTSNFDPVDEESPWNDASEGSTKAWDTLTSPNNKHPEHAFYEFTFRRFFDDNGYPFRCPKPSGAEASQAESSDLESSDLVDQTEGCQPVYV
# T1 sequence (Q7L9L4 whole entry partner, the tested form may be a part): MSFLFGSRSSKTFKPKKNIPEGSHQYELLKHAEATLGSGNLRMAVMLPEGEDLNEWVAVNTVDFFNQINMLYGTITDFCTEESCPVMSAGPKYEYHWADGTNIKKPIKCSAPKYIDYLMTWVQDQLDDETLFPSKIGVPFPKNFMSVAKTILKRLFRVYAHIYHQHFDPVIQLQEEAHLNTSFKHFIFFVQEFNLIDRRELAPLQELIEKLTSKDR
SMILES,Ki [1],EC50 [2],Ki [3]
"c1cc(-c2nc(N3CCC4(CC3)CCN(C3COC3)C4)c3ccncc3n2)ccn1 [Compound 137, 4-(2-(oxetan-3-yl)-2,8-diazaspiro[4.5]decan-8-yl)-2-(pyridin-4-yl)pyrido[3,4-d]pyrimidine]",2.17 nM,1700 nM,
"FC(F)(F)c1[nH]ncc1-c1nc(N2CCC3(CCNC3)CC2)c2ccncc2n1 [Compound 154, 4-(2,8-diazaspiro[4.5]decan-8-yl)-2-(5-(trifluoromethyl)-1H-pyrazol-4-yl)pyrido[3,4-d]pyrimidine]",0.16 nM,7200 nM,
"Cc1cc2c(N3CCC4(CCNC4)CC3)nc(-c3ccncc3)nc2cn1 [Compound 158, 6-methyl-2-(pyridin-4-yl)-4-(2,8-diazaspiro[4.5]decan-8-yl)pyrido[3,4-d]pyrimidine]",1.29 nM,3100 nM,

# More lines, now with the values ahead:
Ki [1],EC50 [2],Ki [3],SMILES
9.42 nM,> 10000 nM,53.5 nM,"O=C1CC2(CCN(c3nc(-c4ccncc4)nc4cnccc34)CC2)CN1 [Compound 164, 8-(2-(pyridin-4-yl)pyrido[3,4-d]pyrimidin-4-yl)-2,8-diazaspiro[4.5]decan-3-one]"
3.93 nM,6500 nM,5.35 nM,"O=C1NCCC12CCN(c1nc(-c3ccncc3)nc3cnccc13)CC2 [Compound 165, 8-(2-(pyridin-4-yl)pyrido[3,4-d]pyrimidin-4-yl)-2,8-diazaspiro[4.5]decan-1-one]"
